In ChEMBL document CHEMBL5150011, “Selection of QPX7831, an Orally Bioavailable Prodrug of Boronic Acid β-Lactamase Inhibitor QPX7728” (J Med Chem, 2021):

Columns and labels:
[1] = Half life in human serum measured upto 30 min by HPLC analysis; format: ADME, cell-free
[2] = Half life in human liver microsomes measured upto 30 min in presence of NADPH by HPLC analysis; format: ADME, Microsome
[3] = Acid dissociation constant, pKa of the compound; format: physicochemical
[4] = Solubility of the compound in FeSSIF using crystalline sample; format: physicochemical
[5] = Solubility of compound in water at pH 7.2 using crystalline sample; format: physicochemical
[6] = Solubility of the compound in FaSSIF using crystalline sample; format: physicochemical
[7] = Solubility of compound in water in presence of 0.5 M PBS at pH 7.0 using crystalline sample; format: physicochemical; conditions: water with 0.5 M PBS
[8] = Lipophilicity, logD of compound at pH 7.4; format: physicochemical; conditions: buffer
[9] = Oral bioavailability in rat at 30 mg/kg by LC/MS/MS analysis; format: ADME, organism-based; conditions: in vivo
[10] = Half life in monkey liver microsomes measured upto 30 min in presence of NADPH by HPLC analysis; format: ADME, Macaca mulatta, Microsome; conditions: rhesus monkey
[11] = Oral bioavailability in dog at 10 mg/kg by LC/MS/MS analysis; format: ADME, organism-based, Canis lupus familiaris; conditions: in vivo
[12] = Half life in dog liver microsomes measured upto 30 min in presence of NADPH by HPLC analysis; format: ADME, Canis lupus familiaris, Microsome
[13] = Oral bioavailability in monkey at 20 mg/kg by LC/MS/MS analysis; format: ADME, organism-based, Macaca mulatta; conditions: rhesus monkey, in vivo
[14] = Half life in rat liver microsomes measured upto 30 min in presence of NADPH by HPLC analysis; format: ADME, Microsome
[15] = Oral bioavailability in dog; format: ADME, organism-based, Canis lupus familiaris; conditions: in vivo
[16] = Oral bioavailability in rat; format: ADME, organism-based; conditions: in vivo
[17] = Oral bioavailability in monkey; format: ADME, organism-based, Macaca mulatta; conditions: rhesus monkey, in vivo

## O=C(OCOC(=O)c1c(F)ccc2c1OB(O)[C@@H]1C[C@H]21)OC1CCOCC1
[1]
  half-life: > 30 min
[2]
  half-life: > 30 min

## COCCOC(=O)OCOC(=O)c1c(F)ccc2c1OB(O)[C@@H]1C[C@H]21
[1]
  half-life: > 60 min
[2]
  half-life: > 30 min

## Cc1oc(=O)oc1COC(=O)c1c(F)ccc2c1OB(O)[C@@H]1C[C@H]21
[1]
  half-life: 3.7 min
[2]
  half-life: > 30 min

## CC(C)C(=O)OCOC(=O)c1c(F)ccc2c1O[B-](O)(O)[C@@H]1C[C@H]21.[Na+]
[3]
  pKa: 4.8
[4]
  solubility thermodynamic: > 100 mg/mL
[5]
  solubility: > 100 mg/mL
[6]
  solubility thermodynamic: > 100 mg/mL
[7]
  solubility thermodynamic: 10.6 mg/mL
[8]
  logD: 0.33

## O=C(OCOC(=O)c1c(F)ccc2c1OB(O)[C@@H]1C[C@H]21)OC1CCCCC1
[1]
  half-life: > 60 min
[2]
  half-life: 27 min

## CCOC(=O)OCOC(=O)c1c(F)ccc2c1OB(O)[C@@H]1C[C@H]21
[1]
  half-life: > 60 min
[2]
  half-life: > 30 min

## CC(=O)N1CCC[C@@H]1C(=O)OCOC(=O)c1c(F)ccc2c1OB(O)[C@@H]1C[C@H]21
[1]
  half-life: > 30 min
[2]
  half-life: > 30 min

## O=C(OCOC(=O)c1c(F)ccc2c1OB(O)[C@@H]1C[C@H]21)OC1COC1
[1]
  half-life: 11 min
[2]
  half-life: > 30 min

## CC(=O)OCCOC(=O)OCOC(=O)c1c(F)ccc2c1OB(O)[C@@H]1C[C@H]21
[1]
  half-life: > 30 min
[2]
  half-life: 24 min

## O=C(OCOC(=O)C1CCOCC1)c1c(F)ccc2c1OB(O)[C@@H]1C[C@H]21
[1]
  half-life: 26 min
[2]
  half-life: 23 min

## O=C(OCOC(=O)C1COC1)c1c(F)ccc2c1OB(O)[C@@H]1C[C@H]21
[1]
  half-life: 3.9 min

## O=C(OCOC(=O)C1CC1)c1c(F)ccc2c1OB(O)[C@@H]1C[C@H]21
[1]
  half-life: > 60 min
[2]
  half-life: 14.3 min

## CC(C)OC(=O)OCOC(=O)c1c(F)ccc2c1OB(O)[C@@H]1C[C@H]21
[2]
  half-life: > 30 min

## CC(=O)OCOC(=O)c1c(F)ccc2c1OB(O)[C@@H]1C[C@H]21
[1]
  half-life: > 30 min
[9]
  bioavailability: 131%
[10]
  half-life: 3 min
[11]
  bioavailability: 50.1%
[12]
  half-life: 15 min
[13]
  bioavailability: 103%
[2]
  half-life: 8 min
[14]
  half-life: 3 min

## CCCC(=O)OCOC(=O)c1c(F)ccc2c1OB(O)[C@@H]1C[C@H]21
[1]
  half-life: > 60 min
[9]
  bioavailability: 145%
[10]
  half-life: 2 min
[11]
  bioavailability: 55.6%
[12]
  half-life: 11 min
[13]
  bioavailability: 104%
[2]
  half-life: 28 min
[14]
  half-life: 3 min

## CC(C)C(=O)OCOC(=O)c1c(F)ccc2c1OB(O)[C@@H]1C[C@H]21
[1]
  half-life: > 60 min
[9]
  bioavailability: 125%
[10]
  half-life: 2 min
[11]
  bioavailability: 65%
[12]
  half-life: 23 min
[13]
  bioavailability: 106%
[2]
  half-life: 9 min
[14]
  half-life: 5 min

## CN(C)C(=O)COC(=O)c1c(F)ccc2c1OB(O)[C@@H]1C[C@H]21
[1]
  half-life: > 60 min
[2]
  half-life: > 30 min

## CN(C)C(=O)COC(=O)OCOC(=O)c1c(F)ccc2c1OB(O)[C@@H]1C[C@H]21
[1]
  half-life: > 60 min
[2]
  half-life: > 30 min

## O=C(O)c1c(F)ccc2c1OB(O)[C@@H]1C[C@H]21 [XERUBORBACTAM]
[15]
  bioavailability: 50%
[16]
  bioavailability: 50%
[17]
  bioavailability: 20%
